From PubChem BioAssay AID2060902 (Molecular Pharmacology Branch, DTP, NCI, 2025) come the findings set out here.

This assay has as its system 485368-065-R3-J5-PDC spheroids with HUVEC/MSC, viability. Briefly: Anticancer human tumor 485368-065-R3-J5-PDC patient-derived pancreatic carcinoma cell line growth inhibition [RAS]. As to conditions: for viability, T/C: stronger effect = lower value. From the text:
RAS pathway inhibitors in Combinations in Complex Spheroids
A high-throughput screen of multi-cell type tumor spheroids was designed to identify active combinations of RAS pathway inhibitors and targeted small molecules. Complex spheroids include a stromal component modeled by human endothelial cells (HUVEC) and fibroblasts modeled by human mesenchymal stem cells (MSCs). The concentration ranges selected for each drug and investigational agent were based upon clinically achievable concentrations if the clinical Cmax of the agent was known.
Compounds. The drugs and investigational agents: abemaciclib (NSC768073), cobimetinib (NSC768068), divarasib (GDC6063, NSC841802), docetaxel (NSC628503), GDC-1971 (RLY-1971, NSC841576), gemcitabine (NSC613327), inavolisib (NSC800729), ipatasertib (NSC767898), KB-0742 (NSC834161), MRTX-1133 (NSC836407), osimertinib (NSC779217), RMC-4630 (NSC839698), RMC-6236 (NSC851965), RMC-6291 (NSC852671), Ro-3306 (NSC812927), sapanisertib (NSC764658), SN-38 (NSC673596), staurosporine (NSC755774), SY5609 (NSC837396), and tovorafenib (DAY101, NSC766906), were obtained from the National Cancer Institute (NCI) Developmental Therapeutics Program Chemical Repository. The FDA-approved anticancer drug set is available from the NCI Developmental Therapeutics Program. […] The stock solutions were prepared in dimethyl sulfoxide (DMSO, Sigma-Aldrich, St. Louis, MO, cat. D2650) at 800-fold the tested concentration and stored at -70 degrees C prior to their use. All drugs and investigational agents were tested over a range starting from a high concentration at or near the clinical Cmax and decreasing in half-log increments. If the clinical Cmax for an agent had not been determined, the highest concentration tested was 10 microM.
Cell Culture. All cells were maintained in an incubator at 37 degrees C and 5% CO2 with 95% humidity. The PDC lines were cultured according to standard operating procedures established by the NCI PDMR. All PDCs were thawed and cultured in Matrigel-coated flasks prepared with a working solution of 1X Ham's F-12 nutrient mix, without supplementation (Invitrogen, Waltham, MA, cat. 11765054), 100 U/mL penicillin-streptomycin (Invitrogen, cat. 15140122), and 2.5% Matrigel (Corning Inc., Corning, NY, cat. 354248) for the first three passages. The 362531-283-R-J2-PDC and 782815-120-R-J1-PDC lines were cultured in 6C/Colon 1B media, which includes advanced DMEM/F-12 (Thermo Fisher Scientific, cat. 12634028), 10 mM HEPES (Thermo Fisher Scientific, cat. 15630080), 1X GlutaMAX supplement (Thermo Fisher Scientific, cat. 35050061), 0.1 mg/mL primocin (InvivoGen, San Diego, CA, cat. ant-pm-2), 10% defined fetal bovine serum, heat inactivated (HyClone Laboratories Inc., Logan, UT, cat. SH30070.03HI), 50% L-WRN conditioned media (ATCC, cat. CRL-3276), 1.25 mM N-Acetyl-L-cysteine (Sigma-Aldrich, cat. A9165), 10 mM nicotinamide (Sigma-Aldrich, cat. N0636), 1X B-27 supplement (Thermo Fisher Scientific, cat. 17504044), 1X N-2 supplement (Thermo Fisher Scientific, cat. 17502048), 50 ng/mL human EGF (Thermo Fisher Scientific, cat. PHG0311), and 10 microM Y-27632 dihydrochloride (Tocris Bioscience, cat. 1254). The K12877-001-R-J1-PDC line was cultured in 6I media, which includes all 6C/Colon 1B media plus 10 ng/mL human FGF-10 (PeproTech, cat. 100-26), 1 ng/mL human FGF-2 (PeproTech, cat. 100-18B), 1 µM prostaglandin E2 (Tocris Bioscience, cat. 2296), […] hydrocortisone (Sigma-Aldrich, cat. H4001), and […] bovine insulin (Sigma-Aldrich, cat. I6634). The K86415-001-R-J1-PDC line was cultured in 6D media, which includes all 6C/Colon 1B media components minus the L-WRN conditioned media. The 485176-168-R4-J1-PDC was cultured in PANC media, which includes all 6C/Colon 1B media plus 100 ng/mL human FGF-10 (PeproTech, cat. 100-26), 500 nM SB-431542 (Selleckchem, cat. S1067), and 10 nM gastrin (Tocris Bioscience, cat. 3006). […]

A word on the viability, T/C: it is the result in the treated group divided by that in the control group, in per cent. By IC50 is commonly meant the point on the concentration scale where inhibition reaches its midpoint.

Where “and” joins values, the source holds several entries; their conditions need not be identical. Equal values may be shown once.
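Also: spheroids exposed to agents for seven days before readout.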

`C#Cc1c(F)ccc2cc(O)cc(-c3ncc4c(N5CC6CCC(C5)N6)nc(OCC56CCCN5CC(F)C6)nc4c3F)c12` (configuration not stated): the viability, T/C is, setting by setting: (compound 0.0316 µM) 105% [middle of 8 runs]; (compound 0.1 µM) 108% [middle of 8 runs]; (compound 0.316 µM) 100% [middle of 8 runs]; (compound 1 µM) 99.4% [middle of 8 runs]; (compound 3.16 µM) 76.5% [middle of 8 runs]; (compound 10 µM) 42.4% [middle of 8 runs]. The IC50 (compound alone, run of 07/15/2024) is 7.73 µM [middle of 8 runs].
With `CC(=O)OC12COC1CC(O)C1(C)C(=O)C(O)C3=C(C)C(OC(=O)C(O)C(NC(=O)OC(C)(C)C)c4ccccc4)CC(O)(C(OC(=O)c4ccccc4)C21)C3(C)C` (configuration not stated), the viability, T/C (compound 0.0316 µM) is 16.4% [middle of 4 runs]; the viability, T/C (compound 0.1 µM) was 15.4% [middle of 4 runs]; the viability, T/C (compound 0.316 µM) is 14% [middle of 4 runs]; the viability, T/C (compound 1 µM) is 16.1% [middle of 4 runs]; the viability, T/C (compound 3.16 µM) was 19.1% [middle of 4 runs]; the viability, T/C (compound 10 µM) is 29.6% [middle of 4 runs]. Also, the concentration for half-maximal inhibition (IC50) (curve of compound) was < 0.0316 µM.
With `CC(C)NCC(C(=O)N1CCN(c2ncnc3c2C(C)CC3O)CC1)c1ccc(Cl)cc1` (configuration not stated), the viability, T/C is 104% and 101% (2×) and 98.3% (compound 0.0316 µM); 100% [middle of 4 runs] (compound 0.1 µM); 94.8% [middle of 4 runs] (compound 0.316 µM); 86.2% [middle of 4 runs] (compound 1 µM); 77.1% [middle of 4 runs] (compound 3.16 µM); 52.3% [middle of 4 runs] (compound 10 µM). In addition, the IC50 (curve of compound) was > 10 µM and 8.61 µM.
As for `CC(Nc1ccc2c(c1)OCCn1cc(N3C(=O)OCC3C(F)F)nc1-2)C(N)=O` (configuration not stated), the viability, T/C reads like this: (compound 0.0316 µM) 96.7% [middle of 4 runs]; (compound 0.1 µM) 90% [middle of 4 runs]; (compound 0.316 µM) 99.2% [middle of 4 runs]; (compound 1 µM) 82.1% [middle of 4 runs]; (compound 3.16 µM) 82% [middle of 4 runs]; (compound 10 µM) 58.4% [middle of 4 runs]. In addition, under “curve of compound”, the IC50 is > 10 µM.
For `CC1(C)CCC(Nc2ncc(C(F)(F)F)c(-c3c[nH]c4c(P(C)(C)=O)c(C#N)ccc34)n2)CN1` (configuration not stated), the viability, T/C was 41.7% [middle of 4 runs] (compound 0.03 µM), 38.6% [middle of 4 runs] (compound 0.0949 µM) and 39.7% [middle of 4 runs] (compound 0.3 µM).
For `CC1(O)CCCC1n1c(=O)c(C(F)F)cc2cnc(NC3CCN(S(C)(=O)=O)CC3)nc21` (configuration not stated), the viability, T/C is 104% [middle of 4 runs] (compound 0.0316 µM); 74% [middle of 4 runs] (compound 0.1 µM); 50.7% [middle of 4 runs] (compound 0.316 µM); 42.3% (2×) and 46.1% and 41.8% (compound 1 µM); 47.1% [middle of 4 runs] (compound 3.16 µM); 19.6% [middle of 4 runs] (compound 10 µM). In addition, the IC50 (curve of compound) is 469 nM [middle of 4 runs].
For `CCC(CC)c1cc(NC2CCC(N)C2)n2nccc2n1` (configuration not stated), the viability, T/C reads like this: (compound 0.0316 µM) 106% [middle of 4 runs]; (compound 0.1 µM) 99.2% [middle of 4 runs]; (compound 0.316 µM) 115% and 105% (2×) and 109%; (compound 3.16 µM) 4.93% [middle of 4 runs]; (compound 10 µM) 8.61% [middle of 4 runs]. Also, the IC50 (curve of compound) is 1.96 µM [middle of 4 runs].
For `C[C@@H](NC(=O)c1ncnc(N)c1Cl)c1ncc(C(=O)Nc2cc(C(F)(F)F)c(Cl)cn2)s1`, the viability, T/C is, setting by setting: (compound 0.0316 µM) 114% (3×) and 115%; (compound 0.1 µM) 104% [middle of 4 runs]; (compound 0.316 µM) 109% [middle of 4 runs]; (compound 1 µM) 93.4% and 96.5% (2×) and 92.5%; (compound 3.16 µM) 108% [middle of 4 runs]; (compound 10 µM) 82.4% [middle of 4 runs]. Also, the 50% inhibitory concentration (IC50) (curve of compound) was > 10 µM.
For `Cc1nc(N2CCC3(CC2)COC(C)C3N)c(CO)nc1Sc1ccnc(N)c1Cl` (configuration not stated), the viability, T/C is 102% [middle of 4 runs] (compound 0.0316 µM), 93.5% [middle of 4 runs] (compound 0.1 µM), 88.9% [middle of 4 runs] (compound 0.316 µM) and 72.8% [middle of 4 runs] (compound 1 µM). Further, the concentration for half-maximal inhibition (IC50) (curve of compound) is > 10 µM.
For `NC1c2ccccc2OC12CCN(c1cnc3c(N4CCCc5ncccc54)n[nH]c3n1)CC2` (configuration not stated), the viability, T/C (compound 0.0316 µM) is 92.8% [middle of 4 runs]; the viability, T/C (compound 0.1 µM) is 82.1% [middle of 4 runs]; the viability, T/C (compound 1 µM) was 70.1% [middle of 4 runs]. Besides, the IC50 (curve of compound) was > 10 µM.
For the molecule `Nc1ccn(C2OC(CO)C(O)C2(F)F)c(=O)n1` (configuration not stated), the viability, T/C is, setting by setting: (compound 0.00316 µM) 100% [middle of 4 runs]; (compound 0.01 µM) 29.2% [middle of 4 runs]; (compound 0.0316 µM) 10.9% [middle of 4 runs]; (compound 0.1 µM) 10.5% [middle of 4 runs]; (compound 0.316 µM) 12.1% [middle of 4 runs]; (compound 1 µM) 11.3% [middle of 4 runs]. In addition, the IC50 (curve of compound) is 0.00713 µM and 0.00664 µM and 0.00675 µM.
